According to US20220241312A1, “COMPOUNDS FOR TREATING CANCER” (Tems Pharmaceuticals, Inc., priority 2019, published 2022):
Counter-ions that a name gives are not always drawn.

Key:
[1] = test system: pancreatic cell line MIAPACA-2; experiment: Cytotoxicity assay (CellTiter Glo), MIAPACA-2; type: cell-based; details: Homo sapiens, MIA PaCa-2, 72 h or 120 h incubation, Compound No. 1 tested as TEA salt
Protocol: (§1) Cytotoxicity of the test compounds were determined for multiple cell lines including gastric cancer cell lines NCI-N-87-luc and MKN45; liver cancer cell lines HepG2, Hep3B, and Huh7; pancreatic cell lines MIAPACA-2 and PANC-1; and colon cancer cell lines HT-29 and HCT-116.
(§2) Test compounds were prepared as 10 mM stock solutions. 5-FU, the control compound, was also prepared as a 10 mM stock solution. 45 μL of stock solution was transferred to a 384 polypropylene plate. The test and control compounds were then serially diluted 3 fold 10 times by transferring 15 μL compound solution into 30 μL DMSO by using TECAN (EVO200) liquid handler. […]
(§3) For each cell line assayed, cells were grown in a flask and then were harvested from the flask into cell culture medium. The cell number was counted and the cells were diluted with cell culture medium to the 2.5*10^4 cells/mL. […]
(§4) The cell culture plates were covered with a lid, placed at room temperature for 30 min without shaking, and transferred into a 37° C. […] On the desired day, cytotoxicity of the compounds was detected using CellTiter Glo. […] 40 μL of CellTiter-Glo reagent was added into each well to be detected (at 1:1 to culture medium). The plates were placed at room temperature for 30 min and then luminescence was detected using an EnSpire plate reader. […]

[2] = test system: liver cancer cell line HepG2; experiment: Cytotoxicity assay (CellTiter Glo), HepG2; type: cell-based; details: Homo sapiens, 72 h or 120 h incubation, Compound No. 1 tested as TEA salt
Protocol: as §1, §2, §3, §4

[3] = test system: gastric cancer cell line MKN45; experiment: Cytotoxicity assay (CellTiter Glo), MKN45; type: cell-based; details: Homo sapiens, MKN-45, 72 h or 120 h incubation, Compound No. 1 tested as TEA salt
Protocol: as §1, §2, §3, §4

[4] = test system: liver cancer cell line Hep3B; experiment: Cytotoxicity assay (CellTiter Glo), Hep3B; type: cell-based; details: Homo sapiens, 72 h or 120 h incubation, Compound No. 1 tested as TEA salt
Protocol: as §1, §2, §3, §4

[5] = test system: liver cancer cell line Huh7; experiment: Cytotoxicity assay (CellTiter Glo), Huh7; type: cell-based; details: Homo sapiens, Huh-7, 72 h or 120 h incubation, Compound No. 1 tested as TEA salt
Protocol: as §1, §2, §3, §4

[6] = test system: colon cancer cell line HCT-116; experiment: Cytotoxicity assay (CellTiter Glo), HCT-116; type: cell-based; details: Homo sapiens, 72 h or 120 h incubation, Compound No. 1 tested as TEA salt
Protocol: as §1, §2, §3, §4

[7] = test system: gastric cancer cell line NCI-N-87-luc; experiment: Cytotoxicity assay (CellTiter Glo), NCI-N-87-luc; type: cell-based; details: 72 h or 120 h incubation, Compound No. 1 tested as TEA salt
Protocol: as §1, §2, §3, §4

[8] = test system: colon cancer cell line HT-29; experiment: Cytotoxicity assay (CellTiter Glo), HT-29; type: cell-based; details: Homo sapiens, 72 h or 120 h incubation, Compound No. 1 tested as TEA salt
Protocol: as §1, §2, §3, §4

[9] = test system: pancreatic cell line PANC-1; experiment: Cytotoxicity assay (CellTiter Glo), PANC-1; type: cell-based; details: Homo sapiens, 72 h or 120 h incubation, Compound No. 1 tested as TEA salt
Protocol: as §1, §2, §3, §4

[10] = biological target: T1, dihydropyrimidine dehydrogenase (DPD) (Homo sapiens, UniProt Q12882); details: background statement; cited from earlier work
T1 sequence (Q12882 4-1025): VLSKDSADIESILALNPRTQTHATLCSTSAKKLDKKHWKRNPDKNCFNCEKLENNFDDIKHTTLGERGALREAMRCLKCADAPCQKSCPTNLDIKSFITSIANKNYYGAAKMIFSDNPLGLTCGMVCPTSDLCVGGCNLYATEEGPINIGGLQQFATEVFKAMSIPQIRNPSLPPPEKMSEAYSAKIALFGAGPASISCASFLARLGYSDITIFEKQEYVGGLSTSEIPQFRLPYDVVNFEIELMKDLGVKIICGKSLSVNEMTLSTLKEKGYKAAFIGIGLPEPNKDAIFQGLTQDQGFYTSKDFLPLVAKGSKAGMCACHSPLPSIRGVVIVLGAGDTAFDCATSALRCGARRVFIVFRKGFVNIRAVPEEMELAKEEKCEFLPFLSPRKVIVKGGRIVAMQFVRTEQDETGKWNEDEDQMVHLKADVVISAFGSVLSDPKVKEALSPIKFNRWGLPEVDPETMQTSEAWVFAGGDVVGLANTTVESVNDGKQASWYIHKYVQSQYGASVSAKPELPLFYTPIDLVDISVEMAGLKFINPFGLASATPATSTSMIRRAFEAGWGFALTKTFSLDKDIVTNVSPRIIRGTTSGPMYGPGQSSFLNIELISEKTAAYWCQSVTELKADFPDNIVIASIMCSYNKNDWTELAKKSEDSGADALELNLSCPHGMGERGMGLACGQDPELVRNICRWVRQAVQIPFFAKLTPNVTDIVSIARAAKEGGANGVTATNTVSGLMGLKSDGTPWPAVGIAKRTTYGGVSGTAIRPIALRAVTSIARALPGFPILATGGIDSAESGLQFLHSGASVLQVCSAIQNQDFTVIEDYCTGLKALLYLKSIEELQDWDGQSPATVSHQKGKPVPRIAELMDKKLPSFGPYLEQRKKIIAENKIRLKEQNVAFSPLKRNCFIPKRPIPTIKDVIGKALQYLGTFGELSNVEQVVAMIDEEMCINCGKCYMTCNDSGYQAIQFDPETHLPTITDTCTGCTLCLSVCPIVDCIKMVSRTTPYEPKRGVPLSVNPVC

SMILES	CC50 [1]	CC50 [2]	CC50 [3]	CC50 [4]	CC50 [5]	CC50 [6]	CC50 [7]	CC50 [8]	CC50 [9]	fraction catabolized by dihydropyrimidine dehydrogenase (DPD) to pharmacodynamically inactive metabolites [10]
CC(C)OC(=O)OCn1c(=O)c(F)cn([C@H]2C[C@@H]3OP(=O)(O)OC[C@H]3O2)c1=O [Compound No. 1, (4aR,6R,7aS)-6-(5-fluoro-3-(((isopropoxycarbonyl)oxy)methyl)-2,4-dioxo-3,4-dihydropyrimidin-1(2H)-yl)tetrahydro-4H-furo[3,2-d][1,3,2]dioxaphosphinin-2-olate 2-oxide triethylamine salt]	60 nM	314 nM	21 nM	45 nM	13 nM	411 nM	515 nM	15 nM	706 nM	–
O=c1[nH]cc(F)c(=O)[nH]1 [5-FU, 5-Fluorouracil]	13100 nM	1740 nM	1680 nM	3670 nM	7300 nM	6800 nM	3990 nM	14800 nM	8260 nM	80-85%
